Structures can show the parent of a compound that is named as a salt.
Key:
[1] = Oral acute toxicity (LD50, method of Finney); assay type: in vivo; conditions: Swiss female mice; for LD50: mouse, in vivo, dose which caused death in 50% of the animals
Description: The oral acute toxicity was determined for products A and A-B on groups of Swiss female mice by the method of Finney and the results were expressed as LD50 (the dose which caused death in 50% of the animals). The DL50 for product A was 3.7 mg/kg and for product A-B was 6.8 mg/kg. The acute toxicity of product A is only about 1.8 times greater than product A-B.

Eimeria tenella = assay: Coccidiostatic activity in chicks infested with Eimeria tenella; assay type: in vivo; conditions: for weight gain / weight gain (or less) as compared to the animals which received product A-B: chicks infested with Eimeria tenella; for weight gain: 14 to 22 days old; for weight gain / weight gain (or less) as compared to the animals which received product A-B / consumption index: feed with 1 ppm of Product A or 3 ppm of Product A-B; for weight gain (or less) as compared to the animals which received product A-B: relative to product A-B; for consumption index: feed consumed compared to weight gain, higher = more sick
Text: The coccidiostatic activity of the product of Step E of Example 1 (product A) was studied in comparison with that of a racemic mixture of 7-bromo-6-chloro-3-[3-(3-hydroxy-2-piperidyl)-acetonyl]-4(3H)-quinazolinone (product A-B), 14 day old chicks were weighed and were divided into 3 groups of 13 animals. One group received a feed containing 1 ppm of product A, a second group received a feed containing 3 ppm of product A-B and the 3rd group received just the feed without any additive. The next day, the chicks were infested with Eimeria tenella coccidies and when the chicks were 22 days old, they were weighed as well as the remaining feed. The caecums were removed and the number of caecal lesions were noted. Also noted was (1) the weight of gain (or less) of the chicks as compared to the animals which received product A-B, (2) consumption index which is the amount of feed consumed compared to the weight gain which indice was all the more elevated than the animals which were more sick and (3) the intensity of the lesions on a seal of 1 to 6 were noted.

| Compound | LD50 [1] [mg/kg] | weight gain (Eimeria tenella) [g] | weight gain (or less) as compared to the animals which received product A-B (Eimeria tenella) | consumption index (Eimeria tenella) | acute toxicity greater than product A-B ([1]; ratio to racemic mixture) | coccidiostatic activity greater than the racemic product A-B (Eimeria tenella; ratio to racemic mixture) [times] |
| --- | --- | --- | --- | --- | --- | --- |
| O=C(CC1NCCCC1O)Cn1cnc2cc(Br)c(Cl)cc2c1=O (racemic) [Product A-B, 7-bromo-6-chloro-3-[3-(3-hydroxy-2-piperidyl)-acetonyl]-4(3H)-quinazolinone, reference compound] | 6.8 | 90.30 | 0% | 2.018 |  |  |
| O=C(C[C@H]1NCCC[C@@H]1O)Cn1cnc2cc(Br)c(Cl)cc2c1=O (single isomer, unassigned) [Product A, dextrorotary 7-bromo-6-chloro-3-[3-(3-hydroxy-2-piperidyl)-acetonyl]-4(3H)-quinazolinone hydrobromide] | 3.7 | 103.07 | +14.14% | 1.807 | about 1.8 times | 3 |
